# Test results published in patent publication US20230065740A1, “CYCLIN-DEPENDENT KINASE INHIBITORS” (SPV THERAPEUTICS INC., priority 2018, published 2023).
# Legend:
# CDK6-CYCLIND3 = target: T1, CDK6-CYCLIND3 (Homo sapiens, UniProt Q00534); assay: Microfluidic LabChip kinase inhibition assay, CDK6-CyclinD3; format: biochemical; settings: Table 2; 300 μM ATP, 2 nM enzyme; read-out: CDK6 IC50
# T1 construct: purchased Carna
# CDK4-CYCLIND1 = CDK4-CYCLIND1 (Homo sapiens, UniProt P11802); assay: Microfluidic LabChip kinase inhibition assay, CDK4-CyclinD1; settings: CDK4 IC50 (μM), Table 2; 200 μM ATP, 1 nM enzyme
# Sequence of CDK4-CYCLIND1 (P11802 whole entry): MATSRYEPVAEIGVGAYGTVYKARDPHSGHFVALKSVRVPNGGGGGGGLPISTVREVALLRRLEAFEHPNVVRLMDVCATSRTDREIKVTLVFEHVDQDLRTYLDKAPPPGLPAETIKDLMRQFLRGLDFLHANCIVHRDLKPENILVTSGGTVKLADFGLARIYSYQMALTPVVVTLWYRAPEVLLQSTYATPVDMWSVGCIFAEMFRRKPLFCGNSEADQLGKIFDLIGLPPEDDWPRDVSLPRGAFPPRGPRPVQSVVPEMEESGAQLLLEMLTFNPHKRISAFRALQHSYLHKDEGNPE
# Sequence of CDK4-CYCLIND1 (P24385 whole entry partner): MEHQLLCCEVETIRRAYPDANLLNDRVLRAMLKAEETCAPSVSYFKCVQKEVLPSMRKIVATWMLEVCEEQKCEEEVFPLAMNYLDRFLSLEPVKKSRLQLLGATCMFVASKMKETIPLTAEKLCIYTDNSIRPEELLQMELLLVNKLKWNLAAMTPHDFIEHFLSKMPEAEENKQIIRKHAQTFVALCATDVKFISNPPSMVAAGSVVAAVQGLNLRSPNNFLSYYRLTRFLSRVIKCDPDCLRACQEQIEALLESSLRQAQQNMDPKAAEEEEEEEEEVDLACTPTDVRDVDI
# T1 sequence (Q00534 whole entry): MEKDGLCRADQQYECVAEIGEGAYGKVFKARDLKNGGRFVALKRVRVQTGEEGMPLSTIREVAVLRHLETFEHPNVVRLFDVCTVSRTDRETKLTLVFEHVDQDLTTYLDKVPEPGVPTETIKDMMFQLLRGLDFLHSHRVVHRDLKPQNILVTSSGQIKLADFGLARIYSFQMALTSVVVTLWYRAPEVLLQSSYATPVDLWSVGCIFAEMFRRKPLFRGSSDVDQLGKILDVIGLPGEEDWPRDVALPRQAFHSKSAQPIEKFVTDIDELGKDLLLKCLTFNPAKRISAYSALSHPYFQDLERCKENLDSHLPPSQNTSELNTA
# T1 sequence (P30281 whole entry partner): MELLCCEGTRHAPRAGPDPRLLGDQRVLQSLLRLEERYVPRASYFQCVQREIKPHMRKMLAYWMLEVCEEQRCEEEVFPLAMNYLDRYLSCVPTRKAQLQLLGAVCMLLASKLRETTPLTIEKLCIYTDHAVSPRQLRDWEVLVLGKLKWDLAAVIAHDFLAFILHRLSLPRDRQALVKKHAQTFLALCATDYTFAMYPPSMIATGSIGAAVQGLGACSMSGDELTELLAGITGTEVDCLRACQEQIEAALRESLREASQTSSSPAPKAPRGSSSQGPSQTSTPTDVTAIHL
SMILES,IC50 (CDK6-CYCLIND3),IC50 (CDK4-CYCLIND1)
"O=C1CC2(Cc3cnc(Nc4ccc(N5CCNCC5)cc4)nc3N2C2CCCC2)C(=O)N1 (stereo not drawn) [Compound C77, 7′-cyclopentyl-2′-((4-(piperazin-1-yl)phenyl)amino)-5′,7′-dihydrospiro[pyrrolidine-3,6′-pyrrolo[2,3-d]pyrimidine]-2,5-dione]",131 nM,0.0251 µM
"CN1CCN(c2ccc(Nc3ncc4c(n3)N(C3CCCC3)C3(CC(=O)NC3=O)C4)cc2)CC1 (stereo not drawn) [Compound C78, 7-cyclopentyl-2′-((4(4-methylpiperazin-1-yl)phenyl)amino)-5′,7′-dihydrospiro[pyrrolidine-3,6′-pyrrolo[2,3-d]pyrimidine]-2,5-dione]",350 nM,0.0667 µM
"O=C1CC2(Cc3cnc(Nc4ccc(N5CCNCC5)c(F)c4)nc3N2C2CCCC2)C(=O)N1 (stereo not drawn) [Compound C80, 7′-cyclopentyl-2′-((3-fluoro-4-(piperazin-1-yl)phenyl)amino)-5′,7′-dihydrospiro[pyrrolidine-3,6′-pyrrolo[2,3-d]pyrimidine]-2,5-dione]",79.2 nM,0.0134 µM
"O=C1CC2(Cc3cnc(Nc4ccc(N5CCNCC5)nc4)nc3N2C2CCCC2)C(=O)N1 (stereo not drawn) [Compound C83, 7′-cyclopentyl-2′-((6-(piperazin-1-yl)pyridin-3-yl)amino)-5′,7′-dihydrospiro[pyrrolidine-3,6′-pyrrolo[2,3-d]pyrimidine]-2,5-dione]",168 nM,0.0516 µM
"O=C1CC2(Cc3cnc(Nc4ccc(N5CCOCC5)c(F)c4)nc3N2C2CCCC2)C(=O)N1 (stereo not drawn) [Compound C86, 7′-cyclopentyl-2′-((3-fluoro-4-morpholinophenyl)amino)-5′,7′-dihydrospiro[pyrrolidine-3,6′-pyrrolo[2,3-d]pyrimidine]-2,5-dione]",461 nM,0.101 µM
"CN1CCN(c2ccc(Nc3ncc4c(n3)N(C3CCCC3)C3(CC(=O)NC3=O)C4)c(F)c2)CC1 (stereo not drawn) [Compound C87, 7′-cyclopentyl-2′-((2-fluoro-4-(4-methylpiperazin-1-yl)phenyl)amino)-5′,7′-dihydrospiro[pyrrolidine-3,6′-pyrrolo[2,3-d]pyrimidine]-2,5-dione]",78100 nM,14.9 µM
"CN(C)CCOc1ccc(Nc2ncc3c(n2)N(C2CCCC2)C2(CC(=O)NC2=O)C3)cc1 (stereo not drawn) [Compound C89, 7′-cyclopentyl-2′-((4-(2-(dimethylamino)ethoxy)phenyl)amino)-5′,7′-dihydrospiro[pyrrolidine-3,6′-pyrrolo[2,3-d]pyrimidine]-2,5-dione]",562 nM,0.143 µM
"CC(C)N1CC=C(c2ccc(Nc3ncc4c(n3)N(C3CCCC3)C3(CC(=O)NC3=O)C4)nc2)CC1 (stereo not drawn) [Compound C94, 7′-cyclopentyl-2′-((1′-isopropyl-1′,2′,3′,6′-tetrahydro-[3,4′-bipyridin]-6-yl)amino)-5′,7′-dihydrospiro[pyrrolidine-3,6′-pyrrolo[2,3-d]pyrimidine]-2,5-dione]",45.6 nM,0.0462 µM
"CN1CCN(c2ccc(Nc3ncc4c(n3)N(C3CCCC3)C(=O)C43CCNC3=O)nc2)CC1 (stereo not drawn) [Compound C100, 7′-cyclopentyl-2′-((5-(4-methylpiperazin-1-yl)pyridin-2-yl)amino)spiro[pyrrolidine-3,5′-pyrrolo[2,3-d]pyrimidine]-2,6′(7′H)-dione]",33400 nM,13.7 µM
"CN1CCN(c2ccc(Nc3ncc4c(n3)N(C3CCCC3)C(=O)C43CCNC3=O)cc2F)CC1 (stereo not drawn) [Compound C103, 7′-cyclopentyl-2′-((3-fluoro-4-(4-methylpiperazin-1-yl)phenyl)amino)spiro[pyrrolidine-3,5′-pyrrolo[2,3-d]pyrimidine]-2,6′(7′H)-dione]",50700 nM,20 µM
"CN(C)[C@H]1CCN(c2ccc(Nc3ncc4c(n3)N(C3CCCC3)C(=O)C43CCNC3=O)cc2F)C1 (stereo partly drawn) [Compound C105, 7′-cyclopentyl-2′-((4-((S)-3-(dimethylamino)pyrrolidin-1-yl)-3-fluorophenyl)amino)spiro[pyrrolidine-3,5′-pyrrolo[2,3-d]pyrimidine]-2,6′(7′H)-dione]",29700 nM,11.8 µM

# The next lines start with the values.
IC50 (CDK6-CYCLIND3),IC50 (CDK4-CYCLIND1),SMILES
139 nM,0.103 µM,"CC(C)N1CCN(c2ccc(Nc3ncc4c(n3)N(C3CCCC3)C3(CC(=O)NC3=O)C4)nc2)CC1 (stereo not drawn) [Compound C76, 7′-cyclopentyl-2′-((5-(4-isopropylpiperazin-1-yl)pyridin-2-yl)amino)-5′,7′-dihydrospiro[pyrrolidine-3,6′-pyrrolo[2,3-d]pyrimidine]-2,5-dione]"
130 nM,0.021 µM,"CC(C)N1CCN(c2ccc(Nc3ncc4c(n3)N(C3CCCC3)C3(CC(=O)NC3=O)C4)cc2)CC1 (stereo not drawn) [Compound C79, 7′-cyclopentyl-2′-((4-(4-isopropylpiperazin-1-yl)phenyl)amino)-5′,7′-dihydrospiro[pyrrolidine-3,6′-pyrrolo[2,3-d]pyrimidine]-2,5-dione]"
73.3 nM,0.0162 µM,"CN1CCN(c2ccc(Nc3ncc4c(n3)N(C3CCCC3)C3(CC(=O)NC3=O)C4)cc2F)CC1 (stereo not drawn) [Compound C81, 7′-cyclopentyl-2′-((3-fluoro-4-(4-methylpiperazin-1-yl)phenyl)amino)-5′,7′-dihydrospiro[pyrrolidine-3,6′-pyrrolo[2,3-d]pyrimidine]-2,5-dione]"
124 nM,0.0222 µM,"CC(C)N1CCN(c2ccc(Nc3ncc4c(n3)N(C3CCCC3)C3(CC(=O)NC3=O)C4)cc2F)CC1 (stereo not drawn) [Compound C82, 7′-cyclopentyl-2′-((3-fluoro-4-(4-isopropylpiperazin-1-yl)phenyl)amino)-5′,7′-dihydrospiro[pyrrolidine-3,6′-pyrrolo[2,3-d]pyrimidine]-2,5-dione]"
173 nM,0.0399 µM,"CN1CCN(c2ccc(Nc3ncc4c(n3)N(C3CCCC3)C3(CC(=O)NC3=O)C4)cn2)CC1 (stereo not drawn) [Compound C84, 7′-cyclopentyl-2′-((6-(4-methylpiperazin-1-yl)pyridin-3-yl)amino)-5′,7′-dihydrospiro[pyrrolidine-3,6′-pyrrolo[2,3-d]pyrimidine]-2,5-dione]"
214 nM,0.0489 µM,"CC(C)N1CCN(c2ccc(Nc3ncc4c(n3)N(C3CCCC3)C3(CC(=O)NC3=O)C4)cn2)CC1 (stereo not drawn) [Compound C85, 7′-cyclopentyl-2′-((6-(4-isopropylpiperazin-1-yl)pyridin-3-yl)amino)-5′,7′-dihydrospiro[pyrrolidine-3,6′-pyrrolo[2,3-d]pyrimidine]-2,5-dione]"
359 nM,0.097 µM,"CN(C)CCOc1ccc(Nc2ncc3c(n2)N(C2CCCC2)C2(CC(=O)NC2=O)C3)cn1 (stereo not drawn) [Compound C88, 7′-cyclopentyl-2′-((6-(2-(dimethylamino)ethoxy)pyridin-3-yl)amino)-5′,7′-dihydrospiro[pyrrolidine-3,6′-pyrrolo[2,3-d]pyrimidine]-2,5-dione]"
255 nM,0.072 µM,"O=C1CC2(Cc3cnc(Nc4ccc(OCCN5CCCC5)nc4)nc3N2C2CCCC2)C(=O)N1 (stereo not drawn) [Compound C90, 7′-cyclopentyl-2′-((6-(2-(pyrrolidin-1-yl)ethoxy)pyridin-3-yl)amino)-5′,7′-dihydrospiro[pyrrolidine-3,6′-pyrrolo[2,3-d]pyrimidine]-2,5-dione]"
239 nM,0.0554 µM,"O=C1CC2(Cc3cnc(Nc4ccc(OCCN5CCCC5)c(F)c4)nc3N2C2CCCC2)C(=O)N1 (stereo not drawn) [Compound C91, 7′-cyclopentyl-2′-((3-fluoro-4-(2-(pyrrolidin-1-yl)ethoxy)phenyl)amino)-5′,7′-dihydrospiro[pyrrolidine-3,6′-pyrrolo[2,3-d]pyrimidine]-2,5-dione]"
95.5 nM,0.0831 µM,"CN(C)CCOc1ccc(Nc2ncc3c(n2)N(C2CCCC2)C2(CC(=O)NC2=O)C3)nc1 (stereo not drawn) [Compound C92, 7′-cyclopentyl-2′-((5-(2-(dimethylamino)ethoxy)pyridin-2-yl)amino)-5′,7′-dihydrospiro[pyrrolidine-3,6′-pyrrolo[2,3-d]pyrimidine]-2,5-dione]"
31800 nM,6.84 µM,"O=C1CC2(Cc3cnc(Nc4ccc(C5=CCNCC5)cn4)nc3N2C2CCCC2)C(=O)N1 (stereo not drawn) [Compound C93, 7′-cyclopentyl-2′-((1′,2′,3′,6′-tetrahydro-[3,4′-bipyridin]-6-yl)amino)-5′,7′-dihydrospiro[pyrrolidine-3,6′-pyrrolo[2,3-d]pyrimidine]-2,5-dione]"
993 nM,0.273 µM,"O=C1NCCC12Cc1cnc(Nc3ccc(N4CCC(N5CCOCC5)CC4)cc3)nc1N2C1CCCC1 (stereo not drawn) [Compound C95, 7′-cyclopentyl-2′-((4-(4-morpholinopiperidin-1-yl)phenyl)amino)-5′,7′-dihydrospiro[pyrrolidine-3,6′-pyrrolo[2,3-d]pyrimidin]-2-one]"
488 nM,0.142 µM,"O=C1NCCC12Cc1cnc(Nc3ccc(N4CCC(N5CCOCC5)CC4)nc3)nc1N2C1CCCC1 (stereo not drawn) [Compound C96, 7′-cyclopentyl-2′-((6-(4-morpholinopiperidin-1-yl)pyridin-3-yl)amino)-5′,7′-dihydrospiro[pyrrolidine-3,6′-pyrrolo[2,3-d]pyrimidin]-2-one]"
287 nM,0.0747 µM,"O=C1NCCC12Cc1cnc(Nc3ccc(N4CCC(N5CCOCC5)CC4)c(F)c3)nc1N2C1CCCC1 (stereo not drawn) [Compound C97, 7′-cyclopentyl-2′-((3-fluoro-4-(4-morpholinopiperidin-1-yl)phenyl)amino)-5′,7′-dihydrospiro[pyrrolidine-3,6′-pyrrolo[2,3-d]pyrimidin]-2-one]"
43400 nM,21 µM,"CN1CCN(c2ccc(Nc3ncc4c(n3)N(C3CCCC3)C(=O)C43CCNC3=O)cc2)CC1 (stereo not drawn) [Compound C101, 7′-cyclopentyl-2′-((4-(4-methylpiperazin-1-yl)phenyl)amino)spiro[pyrrolidine-3,5′-pyrrolo[2,3-d]pyrimidine]-2,6′(7′H)-dione]"
25500 nM,21.8 µM,"O=C1NCCC12C(=O)N(C1CCCC1)c1nc(Nc3ccc(N4CCNCC4)c(F)c3)ncc12 (stereo not drawn) [Compound C102, 7′-cyclopentyl-2′-((3-fluoro-4-(piperazin-1-yl)phenyl)amino)spiro[pyrrolidine-3,5′-pyrrolo[2,3-d]pyrimidine]-2,6′(7′H)-dione]"
